Assay results reported in patent US12344600B2, “c-Myc mRNA translation modulators and uses thereof in the treatment of cancer” (Anima Biotech Inc., priority 2022, dated 2025).

Tested on: global protein synthesis
Test: AHA metabolic labeling in A549 cells
Assay type: cell-based, human
Conditions: not given
Text: FIG. 2 depicts selective regulation of c-Myc translation. […] Cell nuclei stained with DAPI and AHA metabolic labeling are signed on the images.

SMILES | global protein synthesis (AHA metabolic labeling)
C[C@@H]1C[C@@H]([C@H](O)CC2CC(=O)NC(=O)C2)C(=O)[C@@H](C)C1 [cycloheximide] | total inhibition

Tested on: c-Myc
Test: c-Myc immunofluorescence assay
Assay type: cell-based, human
Conditions: A549 cells, 24 hours, anti-c-Myc immunofluorescence
Method in brief: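 Read-out is imaged c-Myc immunofluorescence, nucleus-segmented, in A549 lung carcinoma cells exposed to compound dose series for 24 h after 48 h growth. Fixation 4% paraformaldehyde, Triton permeabilization, antibody staining at room temperature; EC50 from logistic fit of signal versus concentration.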

SMILES | Myc Efficacy (−LogEC50)
COc1ccc(-c2noc(N3CCC(C(=O)NCc4cccnc4)CC3)n2)cc1 [Compound 116, 1-(3-(4-methoxyphenyl)-1,2,4-oxadiazol-5-yl)-N-(pyridin-3-ylmethyl)piperidine-4-carboxamide] | + (+ >3 and <5)
C#CCCC1(CCOc2cccc(-c3noc(N4CCC(C(=O)NCC5CCN(Cc6ccc(C)cc6)C5)CC4)n3)c2)N=N1 (stereo not drawn) [Compound 288, 1-(3-(3-(2-(3-(but-3-yn-1-yl)-3H-diazirin-3-yl)ethoxy)phenyl)-1,2,4-oxadiazol-5-yl)-N-((1-(4-methylbenzyl)pyrrolidin-3-yl)methyl)piperidine-4-carboxamide] | ++ (++ ≥5 and <6)
COc1ccc(-c2noc(C3CCC(C(=O)NCC4CCN(CCO)C4)CC3)n2)cc1 (stereo not drawn) [Compound 197, (1r,4r)-N-((1-(2-hydroxyethyl)pyrrolidin-3-yl)methyl)-4-(3-(4-methoxyphenyl)-1,2,4-oxadiazol-5-yl)cyclohexane-1-carboxamide] | + (+ >3 and <5)
COc1ccc(-c2noc(N3CCC(C(=O)Nc4ccccc4C)CC3)n2)cc1 [Compound 213, 1-(3-(4-methoxyphenyl)-1,2,4-oxadiazol-5-yl)-N-(o-tolyl)piperidine-4-carboxamide] | + (+ >3 and <5)
COc1ccc(-c2noc(N3CCN(C(=O)N4CCC(Oc5ccccc5)CC4)CC3)n2)cc1 [Compound 216, (4-(3-(4-methoxyphenyl)-1,2,4-oxadiazol-5-yl)piperazin-1-yl)(4-phenoxypiperidin-1-yl)methanone] | + (+ >3 and <5)
COc1ccc(-c2noc(N3CCC(C(=O)NC4(c5ccccc5)CC4)CC3)n2)cc1 [Compound 264, 1-(3-(4-methoxyphenyl)-1,2,4-oxadiazol-5-yl)-N-(1-phenylcyclopropyl)piperidine-4-carboxamide] | + (+ >3 and <5)
COc1ccc(-c2noc(N3CCC(C(=O)N4CCOCC4)CC3)n2)cc1 [Compound 139, (1-(3-(4-methoxyphenyl)-1,2,4-oxadiazol-5-yl)piperidin-4-yl)(morpholino)methanone] | + (+ >3 and <5)
COc1ccc(-c2noc(N3CCC(C(=O)NCC4CCN(CCO)C4)CC3)n2)cc1 (stereo not drawn) [Compound 362, N-((1-(2-hydroxyethyl)pyrrolidin-3-yl)methyl)-1-(3-(4-methoxyphenyl)-1,2,4-oxadiazol-5-yl)piperidine-4-carboxamide] | + (+ >3 and <5)
COc1ccccc1-c1noc(N2CCC(C(=O)NCc3cccnc3)CC2)n1 [Compound 179, 1-(3-(2-methoxyphenyl)-1,2,4-oxadiazol-5-yl)-N-(pyridin-3-ylmethyl)piperidine-4-carboxamide] | + (+ >3 and <5)
COc1ccc(-c2noc(N3CCN(C(=O)c4cccc(CN5CCCCC5)c4)CC3)n2)cc1 [Compound 236, (4-(3-(4-methoxyphenyl)-1,2,4-oxadiazol-5-yl)piperazin-1-yl)(3-(piperidin-1-ylmethyl)phenyl)methanone] | ++ (++ ≥5 and <6)
COc1ccc(-c2noc(N3CCC(C(=O)NCC4CCN(CC5CCCO5)C4)CC3)n2)cc1 (stereo not drawn) [Compound 405, 1-(3-(4-methoxyphenyl)-1,2,4-oxadiazol-5-yl)-N-((1-((tetrahydrofuran-2-yl)methyl)pyrrolidin-3-yl)methyl)piperidine-4-carboxamide] | + (+ >3 and <5)
COc1ccc(-c2noc(N3CCC(C(=O)NCC4CCN(CC5CC(N)C5)C4)CC3)n2)cc1 (stereo not drawn) [Compound 394, N-((1-(((1s,3s)-3-aminocyclobutyl)methyl)pyrrolidin-3-yl)methyl)-1-(3-(4-methoxyphenyl)-1,2,4-oxadiazol-5-yl)piperidine-4-carboxamide] | + (+ >3 and <5)
COc1ccc(-c2noc(N3CCC(C(=O)NCC4CCN(CC(C)(C)C)C4)CC3)n2)cc1 (stereo not drawn) [Compound 327, 1-(3-(4-methoxyphenyl)-1,2,4-oxadiazol-5-yl)-N-((1-neopentylpyrrolidin-3-yl)methyl)piperidine-4-carboxamide] | + (+ >3 and <5)
COc1ccc(-c2noc(N3CCC(c4nc5ccccc5[nH]4)CC3)n2)cc1 [Compound 214, 5-(4-(1H-benzo[d]imidazol-2-yl)piperidin-1-yl)-3-(4-methoxyphenyl)-1,2,4-oxadiazole] | + (+ >3 and <5)
COc1ccc(-c2noc(N3CCC(C(=O)Nc4cccc(C)c4)CC3)n2)cc1 [Compound 211, 1-(3-(4-methoxyphenyl)-1,2,4-oxadiazol-5-yl)-N-(m-tolyl)piperidine-4-carboxamide] | + (+ >3 and <5)
COc1ccc(-c2noc(N3CCC(C(=O)NCC4CCN(C[C@H]5CCCCN5C)C4)CC3)n2)cc1 (stereo partly drawn) [Compound 414, 1-(3-(4-methoxyphenyl)-1,2,4-oxadiazol-5-yl)-N-((1-(((R)-1-methylpiperidin-2-yl)methyl)pyrrolidin-3-yl)methyl)piperidine-4-carboxamide] | + (+ >3 and <5)
COc1ccc(-c2noc(N3CCC(C(=O)NCC4CCN(Cc5cncs5)C4)CC3)n2)cc1 (stereo not drawn) [Compound 341, 1-(3-(4-methoxyphenyl)-1,2,4-oxadiazol-5-yl)-N-((1-(thiazol-5-ylmethyl)pyrrolidin-3-yl)methyl)piperidine-4-carboxamide] | + (+ >3 and <5)
COc1ccc(-c2noc(N3CCC(C(=O)NC4(Cc5ccccc5)COC4)CC3)n2)cc1 [Compound 277, N-(3-benzyloxetan-3-yl)-1-(3-(4-methoxyphenyl)-1,2,4-oxadiazol-5-yl)piperidine-4-carboxamide] | + (+ >3 and <5)
CCN(CC)CCCNC(=O)C1CCN(c2nc(-c3ccc(OC)cc3)no2)CC1 [Compound 113, N-(3-(diethylamino)propyl)-1-(3-(4-methoxyphenyl)-1,2,4-oxadiazol-5-yl)piperidine-4-carboxamide] | + (+ >3 and <5)
COc1ccc(-c2noc(C3CN(C(=O)N4CCC(C)CC4)C3)n2)cc1 [Compound 153, (3-(3-(4-methoxyphenyl)-1,2,4-oxadiazol-5-yl)azetidin-1-yl)(4-methylpiperidin-1-yl)methanone] | + (+ >3 and <5)
COc1ccc(-c2noc(N3CCC(C(=O)NCC(c4ccccc4)N(C)C)CC3)n2)cc1 (stereo not drawn) [Compound 304, N-(2-(dimethylamino)-2-phenylethyl)-1-(3-(4-methoxyphenyl)-1,2,4-oxadiazol-5-yl)piperidine-4-carboxamide] | + (+ >3 and <5)
O=C(NCCCN1CCC(Cc2ccccc2F)CC1)N1CCN(c2nc(-c3ccc(OC(F)(F)F)cc3)no2)CC1 [Compound 429, N-(3-(4-(2-fluorobenzyl)piperidin-1-yl)propyl)-4-(3-(4-(trifluoromethoxy)phenyl)-1,2,4-oxadiazol-5-yl)piperazine-1-carboxamide] | +++ (+++ ≥6)
COc1ncc(-c2noc(N3CCC(C(=O)NCC4CCN(Cc5ccc(C)cc5)C4)CC3)n2)cn1 (stereo not drawn) [Compound 232, 1-(3-(2-methoxypyrimidin-5-yl)-1,2,4-oxadiazol-5-yl)-N-((1-(4-methylbenzyl)pyrrolidin-3-yl)methyl)piperidine-4-carboxamide] | + (+ >3 and <5)
COc1ccc(-c2noc(N3CCC(C(=O)NCC4CCN(Cc5ccc(F)cn5)C4)CC3)n2)cc1 (stereo not drawn) [Compound 335, N-((1-((5-fluoropyridin-2-yl)methyl)pyrrolidin-3-yl)methyl)-1-(3-(4-methoxyphenyl)-1,2,4-oxadiazol-5-yl)piperidine-4-carboxamide] | ++ (++ ≥5 and <6)
COc1ccc(-c2noc(N3CCC(C(=O)N4CCC(OC)CC4)CC3)n2)cc1 [Compound 134, (1-(3-(4-methoxyphenyl)-1,2,4-oxadiazol-5-yl)piperidin-4-yl)(4-methoxypiperidin-1-yl)methanone] | + (+ >3 and <5)

Tested on: global translation in A549 cells
Test: Metabolic labeling assay (global translation)
Assay type: cell-based, human
Conditions: 4 hour pulse, FIG. 2
Protocol: A549 cells were incubated with active compounds and metabolically labelled with fluorescent methionine for a 4 hour pulse (click-chemistry modified methionine). Cells were fixed and newly synthesized proteins detected by using click-chemistry with a fluorescent detector (FIG. 2).
A549 cells were seeded at 3,200 cells per well in complete culture medium. Plates were incubated at 37° C., 5% CO2 overnight. After 48 hours of incubation, the growth medium was aspirated, and cells were washed three times with HBSS. Metabolic labeling medium DMEM (-Cys -Met), containing 10% dialyzed FBS, 1% penicillin-streptomycin and 1% L-glutamine was added to the cells for 30 min. Then medium was replaced by metabolic labeling medium containing 25 μM L-Azidohomoalanine (AHA, ThermoFisher) and tested compounds at a final concentration of 30 μM, and cells were incubated for 4 hours at 37° C., 5% CO2. Cells were washed by HBSS at 37° C. for 15 min before fixing with 4% paraformaldehyde. Cells were washed twice with 3% BSA in PBS before permeabilization with 0.5% Triton X-100 in PBS for 20 min. The AHA staining with Alexa Fluor™ 555 alkyne was performed according to the manufacturer protocol. Images were captured with Operetta microscope (Perkin Elmer) using ×20 high NA objective lens.

SMILES | incorporation of modified methionine (global translation)
C[C@@H]1C[C@@H]([C@H](O)CC2CC(=O)NC(=O)C2)C(=O)[C@@H](C)C1 [cycloheximide] | completely reduced incorporation of modified methionine
